In PubChem BioAssay (NCI):
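Cultured in 96-well plates, cells were exposed to test compound for 48 hours across five concentrations. At the GI50, growth is halved. TGI marks complete inhibition of growth.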

Key:
Assay in all cases: inhibition of tumour cell growth, NCI panel, 48 h
HCT-116 colon = test system: HCT-116 colon
SR leukemia = test system: SR leukemia
LOX IMVI melanoma = test system: LOX IMVI melanoma
HL-60(TB) leukemia = test system: HL-60(TB) leukemia
OVCAR-8 ovarian = test system: OVCAR-8 ovarian
A549 NSCLC = test system: A549 NSCLC
KM12 colon = test system: KM12 colon
HCT-15 colon = test system: HCT-15 colon
HCC-2998 colon = test system: HCC-2998 colon
SK-MEL-28 melanoma = test system: SK-MEL-28 melanoma

Row | SMILES | GI50 (HCT-116 colon) [µM] | TGI (HCT-116 colon) [µM] | GI50 (SR leukemia) [µM] | TGI (SR leukemia) [µM] | GI50 (LOX IMVI melanoma) [µM] | TGI (LOX IMVI melanoma) [µM] | GI50 (HL-60(TB) leukemia) [µM] | TGI (HL-60(TB) leukemia) [µM] | GI50 (OVCAR-8 ovarian) [µM] | TGI (OVCAR-8 ovarian) [µM] | GI50 (A549 NSCLC) [µM] | TGI (A549 NSCLC) [µM] | GI50 (KM12 colon) [µM] | TGI (KM12 colon) [µM] | GI50 (HCT-15 colon) [µM] | TGI (HCT-15 colon) [µM] | GI50 (HCC-2998 colon) [µM] | TGI (HCC-2998 colon) [µM] | GI50 (SK-MEL-28 melanoma) [µM] | TGI (SK-MEL-28 melanoma) [µM]
1 | Cc1nc2cc(NC(=O)CN3CCN(CCN4C(=O)c5cccc6cccc(c56)C4=O)CC3)ccc2s1 | 2.94 | 14.7 | 1.19 | > 100 | 4.15 | 15.6 | 6.36 | 26.3 | 2.77 | 19.4 | 4.14 | 19.2 | 4.95 | 18.4 | 3.58 | 16.5 | 6.66 | > 100 | 11.1 | 23.1
2 | Nc1cc2[nH]c(=O)c3cc(Cl)ccc3c2cc1Cl |  | 68.8 |  | > 100 |  | 53.6 |  | > 100 |  | 13.5 |  | 44.7 |  | > 100 |  | > 100 |  | > 100 |  | > 100
3 | O=C(NC(c1ccccc1)C(O)C(=O)OCc1ccc2c(c1)C(=O)c1ccccc1C2=O)c1ccccc1 (centres undefined) |  | 39.1 |  | > 88.3 |  | > 83.8 |  | > 100 |  | 41 |  | 54 |  | > 97.4 |  | > 100 |  | > 100 |  | > 95.6
4 | Cc1nn(C(=O)CC(=O)Nc2ccccc2Cl)c(C)c1N=Nc1ccccc1Cl |  | > 100 |  | > 100 |  | > 100 |  | > 100 |  | > 100 |  | > 100 |  | > 100 |  | > 100 |  | > 100 |  | > 100
5 | CCN(CC)CCC(CNc1c2ccc(Cl)cc2nc2ccc(OC)cc12)c1ccccc1 (centres undefined) | 0.729 | 3.52 | 0.323 | 1.18 | 1 | 2.39 | 1.87 | 4.71 | 1.26 | 3.6 | 1.51 | 3.49 | 0.996 | 4.47 | 0.902 | 4.33 | 1.09 | 2.39 | 1.84 | 3.27
6 | CCCCCCn1c(=N)n(CC(O)COc2cccc(C)c2)c2ccccc21 (centres undefined) | 1.36 | 2.89 | 1.76 | 5.84 | 1.82 | 3.44 | 1.88 | 3.79 | 2.21 | 4.74 | 3.47 | 13.3 | 2.04 | 4.17 | 2.12 | 5.34 | 2.04 | 3.65 | 1.87 | 3.51
7 | N#Cc1ccccc1C#C/C=C\C#Cc1cnccn1 | 12.5 | > 100 | > 20.7 | > 79.7 | > 21.1 | > 60.9 | 3.23 | > 24.1 | 33.9 | 98.4 | 29.8 | > 95 | 3.49 | > 31.5 | 20.6 | > 61 | 4.79 | 28.2 | 35.2 | > 100
8 | COc1ccc(/C=C2\CC(C)CC3C2=NN(C(C)=O)C3c2ccc(OC)c(OC)c2)cc1OC (centres undefined) | 13.7 | 26.6 | 22.9 | 74.4 | 17.7 | 34.8 | 12.6 | 52.1 | 23.5 | > 100 | 18.7 | 77.8 | 19.7 | 42.1 | 15.4 | 32.8 | 12 | 24.3 | 21.8 | 46.9
9 | Cc1cccc(NC(=O)c2sc3nc4c(cc3c2N)CCC4)c1C | 0.381 | 11.8 | 0.191 | 10.2 | 0.643 | > 100 | 0.239 | 0.864 | 0.427 | 16.6 | 0.453 | 13.5 | 0.407 | 41 | 0.264 | 21.3 | 0.687 | 22.5 | 0.803 | 39.6
10 | C/C=C\C(C)=C/C(C)C(=O)CC(O)CC1CC(=O)NC(=O)C1 (centres undefined) |  | > 100 |  | > 63.1 |  | > 100 |  | > 100 |  | 98.8 |  | > 100 |  | > 100 |  | > 100 |  | > 100 |  | > 100
11 | CC(=O)OC1C(OC/C2=C/C3[C@@H](C(C)C)CC=C(C)[C@@H]3CC(OC(=O)/C=C/c3cn(C)cn3)[C@]3(C)C=C[C@@]2(O)O3)OCC(O)C1O (some centres undefined) | 0.011 | > 50 | 0.0292 | > 50 | 0.0234 | > 50 | 0.0164 | 1.51 | 0.0443 | > 50 | 0.0206 | > 50 | 0.0123 |  | 1.2 | > 50 | 0.0134 | 0.0658 | 0.0389 | > 50
12 | CC(=O)OC12CCCCC1C1(CCCC1)NC2=O (centres undefined) |  | > 100 |  | > 100 |  | > 100 |  | > 100 |  | > 100 |  | > 100 |  | > 100 |  | > 100 |  | > 100 |  | > 100
13 | Nc1n[nH]c(=O)c2c1c(Br)cn2C1OC(CO)C(O)C1O (centres undefined) |  | > 40.6 |  | 14.3 |  | 15.3 |  | 1.03 |  | 6.23 |  | > 100 |  | > 100 |  | 48.4 |  | 24.7 |  | 26.6
14 | Oc1c(Br)cc(Br)c2cccnc12 | 3.22 | 10.6 | 3.07 | 13.7 | 2.94 | 14.1 | 2.28 | 5.13 | 3.75 | > 100 | 3.62 | 54.6 | 4.17 | 23.4 | 4.84 | 31.1 | 3.61 | 18.8 | 4.79 | > 100
